Test results from patent EP4413991A1, “PEPTIDE FOR COGNITIVE IMPROVEMENT” (Consejo Superior De Investigaciones Científicas, priority 2023, dated 2024).

Legend:
Type in all cases: in vivo, C57BL/6 mice
[1] = tested on: old mice (~20 months); test: Novel object recognition test (NOR), memory index; conditions: single intrahippocampal injection, versus vehicle; for recognition memory at short term: 2 hours after training trial; for recognition memory at long-term: 5 days after training trial
Procedure: (§1) Different experimental group of old mice (~20 months of age) were randomly injected on the hilus region of both brain hemispheres with vehicle (PBS or destillated water) or with one of four different molecules: Vitamin B12 (50 mg/ml; Vet one, ref: 510218), S-(5'-Adenosyl)-L-methionine chloride (0,25 mg/ml; Sigma, ref: A7007), folic acid (0,25 mg/ml; Sigma, ref: F7876-10G) or synthetic FRa binding peptide, peptide having amino acid sequence SEQ ID NO: 1, (2,5 mg/ml and 5 mg/ml, diluted in PBS; Abyntec). The pH of Vitamin B12, methionine or folic acid were adjusted to ~7 to avoid negative effects due to overly acidic medium. One week after intracerebral injections, mice were assessed with behavioural (open field trial) and memory tests (novel object recognition) to study potential functional effects of different metabolites on central nervous system. Two weeks after surgeries mice were finally perfused just after finalized Y maze test performing.
(§2) After anesthesia with isofluorane, mice were secured in a stereotaxic frame (Kopf). Holes were drilled bilaterally in the skull at the injection sites (one per hemisphere) by microdrill with 0.5 mm drill bit. Stereotaxic coordinates used for intrahippocampal injections were as follows (from bregma): anterior-posterior 2.2, lateral 1.4, dorsoventral 2.0. A 33-gauge needle Hamilton syringe coupled to a syring pump controller mounted to the stereotaxic frame was used to inject 2µl of vehicle or metabolites at each site. Injections occurred at a rate of 0.25 µl/min, after which the needle was left in place for an additional 3 min, stopping another 3 minute in the halfway. After injections were completed, the skin was sutured and the animals were allowed to recover for 1 h on a heating pad before returning to the home cage. Mice remained in the home cage for an additional 1 week before the start of behavioral testing, being sacrificed 2 weeks after surgery.
Both open field (OF) and novel object recognition (NOR) tests were performed as described previously (Rodríguez-Matellán A, et al., In Vivo Reprogramming Ameliorates Aging Features in Dentate Gyrus Cells and Improves Memory in Mice. Stem Cell Reports. 2020 Nov 10;15(5):1056-1066. ). Locomotor activity as well as anxiety and depression-like behaviours in old mice were evaluated using OF. This test was used as habituation of NOR test. In brief, on the first day, the mice were placed individually for 10 min in a 45x45-cm plastic box with vertical opaque walls. Each session was recorded and different data like distance, speed, immobile time and time on center square of the box were analysed with Anymaze software. On the second day, mice were placed in the same box for 5 min, allowing them to explore two identical objects: A and B (two black rooks). Both objects were placed on the long axis of the cage, each 13 cm from the cage end. After each exposure, the objects and the cage were wiped with 70% ethanol to eliminate odors which potentially could condition successive mice behaviour. Two hours after the familiarization trial, each mouse was released into the box with the same object previously used (object A) and a new one (object C, a tower of coloured plastic pieces), instead of the object B (short-term memory test). The position of object C was the same as that of object B in the familiarization trial. The mice were given 5 min to explore the box. Five days later, the mice were released again into the box, with object A in the same position and another new object (object D, a falcon tube filled with wood chips) in the same position of the object C in the previous test. Again, animals were allowed 5 min to explore the box (Long-term memory test). Animals were considered to show recognition when their head was <2 cm from the object.
The memory index (Ml) was used to measure recognition memory performance. […]

[2] = tested on: GluN2B; test: GluN2B immunoreactivity in molecular layer of dentate gyrus; conditions: single intrahippocampal injection, versus vehicle
Procedure: as §1
After anesthesia with isofluorane, mice were secured in a stereotaxic frame (Kopf). Holes were drilled bilaterally in the skull at the injection sites (one per hemisphere) by microdrill with 0.5 mm drill bit. […]
For GluN2B antibodies, the quantification was carried out with the imaged program by measuring the percentage of area occupied by the receptor immunoreactivity in the molecular layer of dentate gyrus. […]

[3] = tested on: perineuronal nets (PNN); test: Perineuronal nets (PNN) density labeled with WFA in dentate gyrus; conditions: single intrahippocampal injection, versus vehicle-injected aged mice
Procedure: as §1, with “Two weeks after surgeries mice were finally perfused just after finalized Y maze test performing.” left out
(§3) Quantifications for density of DCX/Blbp/CIdU-immunoreactive positive cells were performed by counting in four different consecutive medial brain sections the number of cells localized in each whole DG (distinguishing between SGZ and GCL) and the adjacent hilus region. For perineuronal nets of extracellular matrix, positive units labelled with WFA were counted in the dentate gyrus (including granular cell layer and hilus) from three different consecutive medial brain sections. […]

[4] = tested on: Sox2; test: Sox2 expression in dentate gyrus, immunoreactivity; conditions: different regions of dentate gyrus (hilus, GCL, SGZ); unique-dose injection in aged mice; versus vehicle
Procedure: as §1
(§4) After anesthesia with isofluorane, mice were secured in a stereotaxic frame (Kopf). Holes were drilled bilaterally in the skull at the injection sites (one per hemisphere) by microdrill with 0.5 mm drill bit. Stereotaxic coordinates used for intrahippocampal injections were as follows (from bregma): anterior-posterior 2.2, lateral 1.4, dorsoventral 2.0. […]

[5] = tested on: old mice (~20 months); test: Open field test (OF); conditions: single bilateral intrahippocampal (hilus) injection, 2µl per site; tested one week after surgery; versus vehicle
Procedure: as §1, §2
Both open field (OF) and novel object recognition (NOR) tests were performed as described previously (Rodríguez-Matellán A, et al., In Vivo Reprogramming Ameliorates Aging Features in Dentate Gyrus Cells and Improves Memory in Mice. Stem Cell Reports. 2020 Nov 10;15(5):1056-1066. ). Locomotor activity as well as anxiety and depression-like behaviours in old mice were evaluated using OF. This test was used as habituation of NOR test. In brief, on the first day, the mice were placed individually for 10 min in a 45x45-cm plastic box with vertical opaque walls. Each session was recorded and different data like distance, speed, immobile time and time on center square of the box were analysed with Anymaze software. On the second day, mice were placed in the same box for 5 min, allowing them to explore two identical objects: A and B (two black rooks). […]

[6] = tested on: old mice (~20 months); test: Y maze test for spatial memory; conditions: percentage of time in novel arm; single intrahippocampal injection; two weeks after surgery; versus vehicle
Procedure: as §1, with “performing. […]” for “performing.”
To assess spatial memory, an Y maze test based on published protocols with modifications (Kraeuter AK, et al. The Y-Maze for Assessment of Spatial Working and Reference Memory in Mice. Methods Mol Biol. 2019;1916:105-111. ) was performed. […] The number of entries into and the time spent in each arm, were registered from video recordings and analysed by AnyMaze software. […]

[7] = tested on: neuronal precursors cells; test: Adult neurogenesis markers in dentate gyrus, immunofluorescence cell density; conditions: subgranular zone; unique dose hippocampal injection; versus vehicle
Procedure: as §1, §2
Mice received three injections each 2 hours (200 ul/injection, in alternative sides of body) of 5-Chloro-2'-deoxy-Uridine (CldU, Sigma reference C6891; i.p. 42.75 mg/Kg bw) one week after cranial surgery and microinjections of solutions. In this way we were able to follow the effects of treatment in the proliferation of new cells at the subgranular zone, essential zone for neurogenesis process. […]
as §3

[8] = tested on: H3K9me3; test: Histone methylation immunofluorescence in dentate gyrus; conditions: 14 days since injection, versus vehicle
Procedure: as §1
(§5) After anesthesia with isofluorane, mice were secured in a stereotaxic frame (Kopf). […]
(§6) For 5mC, H3K9me3 and H4K20me3 antibodies, acquisition confocal settings (laser intensity, gain, pinhole) were kept constant for all images, which were captured in the same confocal session. […] The area above the threshold was then measured in Fiji and the mean fluorescence in the ROI was calculated and compared between vehicle and folate experimental groups.

[9] = tested on: H4K20me3; test: as above; conditions: 14 days since injection, versus vehicle
Procedure: as §1, §5, §6

[10] = tested on: 5-methycytosine (5mC); test: DNA methylation immunofluorescence in hippocampal neurons; conditions: versus vehicle
Procedure: as §1
as §2, with “After injections were completed, the skin was sutured and the animals were allowed to recover for 1 h on a heating pad before returning to the home cage. Mice remained in the home cage for an additional 1 week before the start of behavioral testing, being sacrificed 2 weeks after surgery.” left out
as §6

[11] = tested on: 5-hydroxymethylcytosine (5hmc); test: DNA hydroxymethylation in hippocampal neuronal layers; conditions: versus vehicle
Procedure: as §1, §4

[12] = tested on: Dnmt1; test: Western blot of Dnmt1 in hippocampal extracts; conditions: western blot densitometry; versus vehicle
Procedure: as §1, §5
Mice were anesthetized with an intraperitoneal pentobarbital injection (Dolethal, 60 mg/kg body weight) and transcardially perfused with saline. […] Serial parasagittal sections ([…] thick) were cryoprotected in 30% sucrose solution in PB and stored in ethylene glycol/glycerol at […] until they were analyzed. […]

| Compound | recognition memory at short term [1] | recognition memory at long-term [1] | expression of GluN2B immunoreactivity (percentage of area occupied) [2] | PNN density labeled with WFA [3] | SOX2 expression [4] | anxiety-depression like behavior (central square time) [5] | locomotor activity (distance travelled, speed and immobile time) [5] | spatial memory [6] | doublecortin-ir cell density [7] | early neuronal precursor like blbp-ir cells density [7] | new born CIdU-ir cells density [7] | one-week-old neurons (double Dcx/CldU-ir cells) density [7] | level of methylation at H3K9me3 [8] | level of methylation at H4K20me3 [9] | level of 5mC, mean intensity ([10]; granular neuronal layer of dentate gyrus (P=0.0132)) | level of 5mC, mean intensity ([10]; pyramidal layer of CA1 (P-value=0.06)) | level of 5mC, mean intensity ([10]; pyramidal layer of CA3 (P-value=0.05)) | level of 5hmc [11] | expression of Dnmt1 hippocampal levels [12] |
| --- | --- | --- | --- | --- | --- | --- | --- | --- | --- | --- | --- | --- | --- | --- | --- | --- | --- | --- | --- |
| CTVRTSAEC (source 1..9: organism (original language) = constructo sintetico) [FRa binding peptide] | Not significant differences | significant improvement | increase | reducing the density | significant increase | – | – | – | – | – | – | – | – | – | – | – | – | – | – |
| Vitamin B12 | not revealed significant differences | not revealed significant differences | – | – | – | not revealed any alteration | not revealed any alteration | not revealed significant differences | – | – | – | – | – | – | – | – | – | – | – |
| Nc1nc2ncc(CNc3ccc(C(=O)N[C@@H](CCC(=O)O)C(=O)O)cc3)nc2c(=O)[nH]1 [folate, folic acid] | not significant differences | improves | increase | significant reduction | – | improvement | improvement | improvement | neither found differences | subtle but non-significant tendency of increase | subtle but non-significant tendency of increase | subtle but non-significant tendency of increase | does not modify | does not modify | significant changes | important tendency | important tendency | not significant changes | increased |
